Experimental findings from PubChem BioAssay AID977614 (Broad Institute, 2014) are described below.

Calls of active or inactive are those of the source.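 How the source made its calls: active means parasite count per well reduced by over 3 SD from the mean, with host cell number above 80% of untreated; inactive means the rest.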

For orientation: AC50 means the midpoint of the concentration-response curve, whichever way the signal moves.

In this test the test system is L. donovani amastigotes in THP-1 macrophages, DAPI imaging, 72 h. In words: antileishmanial activity in infected macrophages – imaging, THP-1 host macrophages, single concentration (AID 977614).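 Further: signal is the parasite per host cell ratio from DAPI stained kinetoplasts and nuclei.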
Consider `C[C@H](CO)N1C[C@H](C)[C@H](CN(C)C(=O)NC2CCCC2)OCc2cnnn2CCCC1=O`, for which the AC50 was > 10 µM (inactive).

Regarding `CCCN(C[C@H]1N[C@H](CO)[C@@H]1c1ccccc1)C(=O)COC`, the AC50 is > 10 µM (inactive).

Turning to `CNC[C@@H]1OCc2cnnn2CCCC(=O)N([C@@H](C)CO)C[C@H]1C`, the AC50 was > 10 µM (inactive).

Take `C[C@@H]1CN([C@H](C)CO)C(=O)CCCn2nncc2CO[C@H]1CN(C)C(=O)Nc1ccnc(N2CCOCC2)c1`: the AC50 was > 10 µM (inactive).

On to `CC(=O)N1[C@H](CN(CC(C)C)C(=O)c2ccccn2)[C@H](c2ccccc2)[C@@H]1CO`, for which the AC50 is > 10 µM (inactive).

Regarding `OC[C@H]1[C@H]2c3ccccc3NC[C@H]2N1Cc1cccnc1`, the AC50 is > 10 µM (inactive).

With `C[C@H]1CN([C@@H](C)CO)C(=O)CCCn2cc(nn2)CO[C@H]1CN(C)C(=O)Nc1cccc2ccccc12`, the AC50 is > 10 µM (inactive).

Take `O=C(Nc1ccc(F)cc1)N1C[C@H]2[C@@H](c3ccccc31)[C@H](CO)N2C(=O)c1ccncc1`: the AC50 is > 10 µM (inactive).

Regarding `O=C(C1CCCCC1)N1[C@H](CO)[C@@H]2c3ccccc3N(S(=O)(=O)c3ccccc3)C[C@@H]21`, the AC50 is > 10 µM (inactive).

Regarding `CCN(C[C@H]1N[C@H](CO)[C@@H]1c1ccccc1)C(=O)c1ccncc1`, the AC50 is > 10 µM (inactive).

Consider `O=C(CN1CCOCC1)N1[C@H](CO)[C@H]2c3ccccc3NC[C@H]21`, for which the AC50 is > 10 µM (inactive).

Turning to `CCC(=O)N1[C@@H](CO)[C@H](c2ccccc2)[C@@H]1CN(C)C(=O)CN1CCOCC1`, the AC50 was > 10 µM (inactive).

Regarding `C[C@@H]1CN([C@@H](C)CO)C(=O)CCCn2nncc2CO[C@H]1CN(C)C(=O)Nc1cccc(Oc2ccccn2)c1`, the AC50 is > 10 µM (inactive).

Regarding `O=C(c1ccncc1)N1C[C@@H]2[C@H](c3ccccc31)[C@H](CO)N2C(=O)CN1CCOCC1`, the AC50 was > 10 µM (inactive).

Turning to `C[C@H](CO)N1C[C@H](C)[C@@H](CN(C)C(=O)Nc2ccnc(N3CCOCC3)c2)OCc2cnnn2CCCC1=O`, the AC50 is > 10 µM (inactive).

As to `COCC(=O)N(C[C@H]1[C@H](c2ccccc2)[C@H](CO)N1C(=O)NC(C)C)C(C)C`, the AC50 was > 10 µM (inactive).

As for `O=C(Cc1ccccc1)N1C[C@@H]2[C@H](c3ccccc31)[C@H](CO)N2S(=O)(=O)c1ccccc1`, the AC50 was > 10 µM (inactive).

For `C[C@@H]1CN([C@H](C)CO)C(=O)CCCn2nncc2CO[C@H]1CN(C)S(=O)(=O)c1cn(C)cn1`, the AC50 is > 10 µM (inactive).

Take `O=C(c1ccncc1)N1C[C@H]2[C@@H](c3ccccc31)[C@@H](CO)N2C(=O)CN1CCOCC1`: the AC50 is > 10 µM (inactive).

As for `C[C@@H]1CN([C@@H](C)CO)C(=O)CCCn2cc(nn2)CO[C@H]1CN(C)C(=O)Nc1ccc2c(c1)OCO2`, the AC50 is > 10 µM (inactive).

For the molecule `C/C=C/c1ccc([C@H]2[C@@H](CNC(C)=O)N(C(=O)Cc3ccncc3)[C@H]2CO)cc1`, the AC50 is > 10 µM (inactive).

As to `CC(=O)N1C[C@@H]2[C@H](c3ccccc31)[C@H](CO)N2Cc1ccc(Cl)cc1`, the AC50 was > 10 µM (inactive).

Regarding `CCNC[C@@H]1[C@@H](c2ccc(-c3ccc(F)cc3)cc2)[C@@H](CO)N1C(=O)C1CC1`, the AC50 is > 10 µM (inactive).

As for `O=C(Cc1ccccc1)N1C[C@H]2[C@@H](c3ccccc31)[C@H](CO)N2S(=O)(=O)c1ccccc1`, the AC50 was > 10 µM (inactive).

As for `C[C@@H]1CN([C@@H](C)CO)C(=O)CCCn2nncc2CO[C@@H]1CN(C)Cc1ccc(C(=O)Nc2ccccc2N)cc1`, the AC50 is > 10 µM (inactive).

For `O=C(Cc1ccccn1)N1[C@H](CO)[C@@H]2c3ccccc3NC[C@@H]21`, the AC50 was > 10 µM (inactive).

Take `O=C(NC[C@H]1[C@@H](c2ccccc2)[C@H](CO)N1C(=O)Cc1ccncc1)C1CCC1`: the AC50 was > 10 µM (inactive).

In the case of `C[C@H]1CN([C@@H](C)CO)C(=O)CCCn2nncc2CO[C@@H]1CN(C)Cc1ccc2cccnc2c1`, the AC50 is > 10 µM (inactive).

As for `CCCNC[C@H]1[C@@H](c2ccc(-c3cccc(C#N)c3)cc2)[C@@H](CO)N1C(C)=O`, the AC50 was > 10 µM (inactive).

With `C[C@@H]1CN([C@@H](C)CO)C(=O)CCCn2nncc2CO[C@H]1CN(C)Cc1ccccc1C(=O)O`, the AC50 was > 10 µM (inactive).

Take `COc1ccccc1-c1ccc([C@H]2[C@@H](CO)N(C(C)=O)[C@H]2CN(C)C(C)=O)cc1`: the AC50 is > 10 µM (inactive).

For the molecule `O=C(Nc1cccc(F)c1)N1C[C@H]2[C@@H](c3ccccc31)[C@@H](CO)N2C(=O)Cc1ccccn1`, the AC50 is > 10 µM (inactive).

On to `O=C(CC(F)(F)F)N1C[C@H]2[C@@H](c3ccccc31)[C@@H](CO)N2Cc1cccnc1`, for which the AC50 was > 10 µM (inactive).

In the case of `CCS(=O)(=O)N(C)C[C@@H]1N[C@H](CO)[C@@H]1c1ccc(-c2ccccc2F)cc1`, the AC50 is > 10 µM (inactive).

In the case of `C[C@H](CO)N1C[C@H](C)[C@H](CN(C)S(=O)(=O)c2cccc(C#N)c2)OCc2cn(nn2)CCCC1=O`, the AC50 was > 10 µM (inactive).

For `CCN(C[C@@H]1[C@@H](c2ccccc2)[C@H](CO)N1CC1CC1)C(=O)c1ccccn1`, the AC50 was > 10 µM (inactive).

Take `COc1ccc(C(=O)N2C[C@@H]3[C@H](c4ccccc42)[C@@H](CO)N3Cc2ccccc2Cl)cc1`: the AC50 is > 10 µM (inactive).

Turning to `C[C@@H]1CN([C@@H](C)CO)C(=O)CCCn2nncc2CO[C@H]1CN(C)C(=O)c1cc(-c2ccccc2)on1`, the AC50 is > 10 µM (inactive).

As for `O=S(=O)(NC[C@H]1[C@H](c2ccccc2)[C@H](CO)N1CC1CC1)c1ccccc1`, the AC50 is > 10 µM (inactive).

For the molecule `CCC(=O)N1[C@@H]2CN(S(=O)(=O)c3ccc(F)cc3)c3ccccc3[C@@H]2[C@@H]1CO`, the AC50 is > 10 µM (inactive).

As for `COc1ccccc1CN1[C@H](CO)[C@H]2c3ccccc3N(C(=O)c3cccnc3)C[C@H]21`, the AC50 is > 10 µM (inactive).

Regarding `C/C=C/c1ccc([C@H]2[C@@H](CN(C)C(=O)CC3CC3)N(C(=O)C3CC3)[C@H]2CO)cc1`, the AC50 is > 10 µM (inactive).

With `C[C@H](CO)N1C[C@H](C)[C@@H](CN(C)S(=O)(=O)c2ccc3c(c2)OCCCO3)OCc2cnnn2CCCC1=O`, the AC50 was > 10 µM (inactive).

`CN(C[C@H]1[C@@H](c2ccc(C3=CCCC3)cc2)[C@@H](CO)N1CCC(F)(F)F)S(C)(=O)=O`: the AC50 was > 10 µM (inactive).

Take `Cc1noc(C)c1NC(=O)N(C)C[C@H]1OCc2cnnn2CCCC(=O)N([C@@H](C)CO)C[C@@H]1C`: the AC50 was > 10 µM (inactive).

For `COc1ccc(CN2[C@H](CO)[C@@H]3c4ccccc4N(C(=O)NC(C)C)C[C@@H]32)cc1`, the AC50 is > 10 µM (inactive).

Turning to `O=C(C1CCCCC1)N1[C@@H](CO)[C@@H]2c3ccccc3NC[C@@H]21`, the AC50 was > 10 µM (inactive).

Consider `C[C@H](CO)N1C[C@H](C)[C@H](CN(C)C(=O)c2cc(-c3ccccc3)on2)OCc2cnnn2CCCC1=O`, for which the AC50 is > 10 µM (inactive).

Regarding `C[C@@H]1CN([C@@H](C)CO)C(=O)CCCn2nncc2CO[C@@H]1CN(C)C(=O)Nc1ccc2c(c1)OCCO2`, the AC50 was > 10 µM (inactive).

`COc1ccc(CN(C)C[C@@H]2OCc3cnnn3CCCC(=O)N([C@H](C)CO)C[C@H]2C)cc1`: the AC50 is > 10 µM (inactive).

`CC(C)N(C[C@@H]1[C@@H](c2ccccc2)[C@@H](CO)N1S(C)(=O)=O)C(=O)CN(C)C`: the AC50 is > 10 µM (inactive).

In the case of `CCc1csc(N2[C@H](CO)[C@H](c3ccccc3)[C@@H]2CN(C)C(=O)C2CCC2)n1`, the AC50 was > 10 µM (inactive).

With `O=C(c1ccccc1F)N1C[C@@H]2[C@H](c3ccccc31)[C@@H](CO)N2C(=O)Nc1ccccc1`, the AC50 is > 10 µM (inactive).

Consider `COCC(=O)N1[C@H](CO)[C@H]2c3ccccc3N(C(=O)Nc3ccccc3Cl)C[C@H]21`, for which the AC50 was > 10 µM (inactive).

Take `C[C@@H]1CN([C@H](C)CO)C(=O)CCCn2cc(nn2)CO[C@@H]1CN(C)S(=O)(=O)c1cccc(C#N)c1`: the AC50 was > 10 µM (inactive).

Turning to `C[C@@H]1CN([C@H](C)CO)C(=O)CCCn2nncc2CO[C@H]1CN(C)S(=O)(=O)c1ccc2c(c1)OCCCO2`, the AC50 was > 10 µM (inactive).

Regarding `O=S(=O)(NC[C@@H]1[C@H](c2ccccc2)[C@H](CO)N1CC1CC1)c1ccccc1`, the AC50 was > 10 µM (inactive).

Regarding `C[C@H](CO)N1C[C@H](C)[C@@H](CN(C)C(=O)Nc2ccc3c(c2)OCCO3)OCc2cnnn2CCCC1=O`, the AC50 is > 10 µM (inactive).

For the molecule `COCC(=O)N1[C@H](CO)[C@H]2c3ccccc3NC[C@H]21`, the AC50 was > 10 µM (inactive).

With `CN1C[C@@H]2[C@H](c3ccccc31)[C@@H](CO)N2C(=O)C1CCOCC1`, the AC50 is > 10 µM (inactive).

With `CCC(=O)N1[C@H](CO)[C@H](c2ccc(-c3cccc(OC)c3)cc2)[C@@H]1CNC(C)=O`, the AC50 is > 10 µM (inactive).

Regarding `CCCN1[C@H](CO)[C@H](c2ccc(-c3ccccc3F)cc2)[C@@H]1CNC(=O)C1CCC1`, the AC50 was > 10 µM (inactive).

Consider `C[C@@H]1CN([C@@H](C)CO)C(=O)CCCn2cc(nn2)CO[C@H]1CN(C)C(=O)Nc1cccc2ccccc12`, for which the AC50 was > 10 µM (inactive).

Regarding `COCCN(C[C@@H]1[C@@H](c2ccccc2)[C@H](CO)N1C(=O)C1CC1)C(C)=O`, the AC50 was > 10 µM (inactive).

For the molecule `O=C(Nc1ccc(Cl)cc1)N1C[C@@H]2[C@H](c3ccccc31)[C@H](CO)N2CC1CCCCC1`, the AC50 is > 10 µM (inactive).

As to `COc1cccc(C(=O)N2C[C@H]3[C@@H](c4ccccc42)[C@H](CO)N3C(=O)c2cccc(F)c2)c1`, the AC50 was > 10 µM (inactive).

As for `CCCNC(=O)N1C[C@H]2[C@@H](c3ccccc31)[C@@H](CO)N2C(=O)Nc1ccccc1F`, the AC50 is > 10 µM (inactive).

As for `O=C(Cc1ccccc1)N1C[C@H]2[C@@H](c3ccccc31)[C@@H](CO)N2S(=O)(=O)c1ccccc1`, the AC50 was > 10 µM (inactive).

Consider `C[C@@H]1CN([C@H](C)CO)C(=O)CCCn2nncc2CO[C@H]1CN(C)S(=O)(=O)c1ccccc1C#N`, for which the AC50 is > 10 µM (inactive).
